In this test the target is human Nav 1.8 (Homo sapiens, UniProt Q9Y5Y9). The experiment in a line: E-VIPR assay detecting and measuring Nav inhibition properties. Format: cell-based. Conditions: HEK cells expressing a truncated form of human Nav 1.8; compound numbers without "*" (not marked as run in the presence of human serum); read-out: measured IC50 value in the E-VIPR Assay. The gist of the method:
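Nav inhibition was read by E-VIPR: cells were electrically stimulated while coumarin/oxonol FRET emissions were recorded. Cells were HEK expressing a truncated human Nav 1.8 and co-transduced with KIR2.1, and were assayed in 25% final human serum.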
Sequence of human Nav 1.8 (Q9Y5Y9 126-399 limits assumed): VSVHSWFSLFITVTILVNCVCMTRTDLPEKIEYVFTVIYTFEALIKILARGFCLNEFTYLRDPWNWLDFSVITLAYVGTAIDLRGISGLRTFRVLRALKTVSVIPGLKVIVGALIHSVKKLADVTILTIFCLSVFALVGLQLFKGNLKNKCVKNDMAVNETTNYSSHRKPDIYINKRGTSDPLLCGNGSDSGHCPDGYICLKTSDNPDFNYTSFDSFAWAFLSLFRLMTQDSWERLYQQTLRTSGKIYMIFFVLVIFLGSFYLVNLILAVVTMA
Sequence of human Nav 1.8 (Q9Y5Y9 660-890 limits assumed): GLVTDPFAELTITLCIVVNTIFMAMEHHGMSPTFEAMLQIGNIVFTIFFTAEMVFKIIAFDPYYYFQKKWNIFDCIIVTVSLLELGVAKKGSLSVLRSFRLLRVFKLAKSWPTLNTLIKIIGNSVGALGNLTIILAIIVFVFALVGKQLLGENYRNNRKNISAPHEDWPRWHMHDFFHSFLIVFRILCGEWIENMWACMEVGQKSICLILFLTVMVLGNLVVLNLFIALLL
Sequence of human Nav 1.8 (Q9Y5Y9 1148-1722 limits assumed): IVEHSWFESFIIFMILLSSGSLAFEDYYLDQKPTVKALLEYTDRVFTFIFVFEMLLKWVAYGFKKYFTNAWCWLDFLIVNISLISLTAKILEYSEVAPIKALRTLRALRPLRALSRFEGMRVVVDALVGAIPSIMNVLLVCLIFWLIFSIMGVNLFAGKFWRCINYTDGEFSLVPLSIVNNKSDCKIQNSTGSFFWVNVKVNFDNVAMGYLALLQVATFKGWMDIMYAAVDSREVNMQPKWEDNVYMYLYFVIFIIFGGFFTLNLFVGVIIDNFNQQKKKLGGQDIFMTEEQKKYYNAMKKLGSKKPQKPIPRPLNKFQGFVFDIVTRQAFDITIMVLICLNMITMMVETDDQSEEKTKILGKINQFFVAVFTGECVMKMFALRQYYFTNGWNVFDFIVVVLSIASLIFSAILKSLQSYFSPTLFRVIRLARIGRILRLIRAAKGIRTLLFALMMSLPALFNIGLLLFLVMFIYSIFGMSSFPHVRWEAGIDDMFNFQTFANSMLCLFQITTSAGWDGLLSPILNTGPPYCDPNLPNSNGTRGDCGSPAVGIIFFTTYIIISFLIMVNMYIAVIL
Consider `C[C@H]1[C@@H](c2ccc(F)c(F)c2OC[C@H]2C[C@](O)(C(F)(F)F)C2)[C@H](C(=O)Nc2ccnc(C(N)=O)c2)O[C@@]1(C)C(F)(F)F` [Compound 7, 4-((2R,3S,4S,5R)-3-(3,4-difluoro-2-(((1s,3R)-3-hydroxy-3-(trifluoromethyl)cyclobutyl)methoxy)phenyl)-4,5-dimethyl-5-(trifluoromethyl)tetrahydrofuran-2-carboxamido)picolinamide], for which the IC50 (in general, the concentration that gives 50% inhibition) was in the range of 0.01 to 0.1 µM.

As to `COc1c([C@H]2[C@H](C(=O)Nc3ccnc(C(=O)N4CCN(C)CC4)c3)O[C@@](C)(C(F)(F)F)[C@H]2C)ccc(F)c1F` [Compound 8, (2R,3S,4S,5R)-3-(3,4-difluoro-2-methoxy-phenyl)-4,5-dimethyl-N-[2-(4-methylpiperazine-1-carbonyl)-4-pyridyl]-5-(trifluoromethyl)tetrahydrofuran-2-carboxamide], the IC50 was less than 0.01 µM. The result for `COc1c([C@H]2[C@H](C(=O)Nc3cc(C(=O)N4CCN(C)CC4)ncc3F)O[C@@](C)(C(F)(F)F)[C@H]2C)ccc(F)c1F` [Compound 9, (2R,3S,4S,5R)-3-(3,4-difluoro-2-methoxyphenyl)-N-(5-fluoro-2-(4-methylpiperazine-1-carbonyl)pyridin-4-yl)-4,5-dimethyl-5-(trifluoromethyl)tetrahydrofuran-2-carboxamide] reads less than 0.01 µM; that for `COc1c([C@H]2[C@H](C(=O)Nc3cccc(C(=O)N4CCN(C)CC4)n3)O[C@@](C)(C(F)(F)F)[C@H]2C)ccc(F)c1F` [Compound 10, (2R,3S,4S,5R)-3-(3,4-difluoro-2-methoxyphenyl)-4,5-dimethyl-N-(6-(4-methylpiperazine-1-carbonyl)pyridin-2-yl)-5-(trifluoromethyl)tetrahydrofuran-2-carboxamide], 0.1 to 1 µM.

In the case of `COc1c([C@H]2[C@H](C(=O)Nc3ccnc(C(=O)N4CCN(C)CC4)n3)O[C@@](C)(C(F)(F)F)[C@H]2C)ccc(F)c1F` [Compound 11, (2R,3S,4S,5R)-3-(3,4-difluoro-2-methoxyphenyl)-4,5-dimethyl-N-(2-(4-methylpiperazine-1-carbonyl)pyrimidin-4-yl)-5-(trifluoromethyl)tetrahydrofuran-2-carboxamide], the IC50 lay in the range of 0.01 to 0.1 µM. In the case of `COc1c([C@H]2[C@H](C(=O)Nc3cc(C(=O)N4CCN(C)CC4)ncc3C)O[C@@](C)(C(F)(F)F)[C@H]2C)ccc(F)c1F` [Compound 12, (2R,3S,4S,5R)-3-(3,4-difluoro-2-methoxyphenyl)-4,5-dimethyl-N-(5-methyl-2-(4-methylpiperazine-1-carbonyl)pyridin-4-yl)-5-(trifluoromethyl)tetrahydrofuran-2-carboxamide], the IC50 lay within 0.01 to 0.1 µM. On to `COc1c([C@H]2[C@H](C(=O)Nc3nccc(C(=O)N4CCN(C)CC4)n3)O[C@@](C)(C(F)(F)F)[C@H]2C)ccc(F)c1F` [Compound 13, (2R,3S,4S,5R)-3-(3,4-difluoro-2-methoxyphenyl)-4,5-dimethyl-N-(4-(4-methylpiperazine-1-carbonyl)pyrimidin-2-yl)-5-(trifluoromethyl)tetrahydrofuran-2-carboxamide], for which the IC50 fell in the range of 0.1 to 1 µM. As to `COc1c([C@H]2[C@H](C(=O)Nc3cc(C(=O)N4CCN(C)CC4)ccn3)O[C@@](C)(C(F)(F)F)[C@H]2C)ccc(F)c1F` [Compound 14, (2R,3S,4S,5R)-3-(3,4-difluoro-2-methoxyphenyl)-4,5-dimethyl-N-(4-(4-methylpiperazine-1-carbonyl)pyridin-2-yl)-5-(trifluoromethyl)tetrahydrofuran-2-carboxamide], the IC50 lay in the range of 0.1 to 1 µM. Take `COc1c([C@H]2[C@H](C(=O)Nc3cc(C(=O)N4CCNCC4)ncc3C)O[C@@](C)(C(F)(F)F)[C@H]2C)ccc(F)c1F` [Compound 15, (2R,3S,4S,5R)-3-(3,4-difluoro-2-methoxy-phenyl)-4,5-dimethyl-N-[5-methyl-2-(piperazine-1-carbonyl)-4-pyridyl]-5-(trifluoromethyl)tetrahydrofuran-2-carboxamide]: the IC50 is less than 0.01 µM. For `COc1c([C@H]2[C@H](C(=O)Nc3cc(C(=O)N4CCNCC4)ncc3F)O[C@@](C)(C(F)(F)F)[C@H]2C)ccc(F)c1F` [Compound 16, (2R,3S,4S,5R)-3-(3,4-difluoro-2-methoxy-phenyl)-N-[5-fluoro-2-(piperazine-1-carbonyl)-4-pyridyl]-4,5-dimethyl-5-(trifluoromethyl)tetrahydrofuran-2-carboxamide], the IC50 is 0.01 to 0.1 µM. The result for `COc1c([C@H]2[C@H](C(=O)Nc3cccc(C(=O)N4CCNCC4)n3)O[C@@](C)(C(F)(F)F)[C@H]2C)ccc(F)c1F` [Compound 17, (2R,3S,4S,5R)-3-(3,4-difluoro-2-methoxyphenyl)-4,5-dimethyl-N-(6-(piperazine-1-carbonyl)pyridin-2-yl)-5-(trifluoromethyl)tetrahydrofuran-2-carboxamide] reads 0.01 to 0.1 µM; that for `COc1c([C@H]2[C@H](C(=O)Nc3cc(C(=O)N4CCNCC4)ccn3)O[C@@](C)(C(F)(F)F)[C@H]2C)ccc(F)c1F` [Compound 18, (2R,3S,4S,5R)-3-(3,4-difluoro-2-methoxyphenyl)-4,5-dimethyl-N-(4-(piperazine-1-carbonyl)pyridin-2-yl)-5-(trifluoromethyl)tetrahydrofuran-2-carboxamide], 0.01 to 0.1 µM; that for `COc1c([C@H]2[C@H](C(=O)Nc3ccnc(C(=O)N4CCNCC4)n3)O[C@@](C)(C(F)(F)F)[C@H]2C)ccc(F)c1F` [Compound 19, (2R,3S,4S,5R)-3-(3,4-difluoro-2-methoxyphenyl)-4,5-dimethyl-N-(2-(piperazine-1-carbonyl)pyrimidin-4-yl)-5-(trifluoromethyl)tetrahydrofuran-2-carboxamide], 0.01 to 0.1 µM. `COc1c([C@H]2[C@H](C(=O)Nc3nccc(C(=O)N4CCNCC4)n3)O[C@@](C)(C(F)(F)F)[C@H]2C)ccc(F)c1F` [Compound 20, (2R,3S,4S,5R)-3-(3,4-difluoro-2-methoxyphenyl)-4,5-dimethyl-N-(4-(piperazine-1-carbonyl)pyrimidin-2-yl)-5-(trifluoromethyl)tetrahydrofuran-2-carboxamide]: the IC50 fell in the range of 0.01 to 0.1 µM. As to `COc1c([C@H]2[C@H](C(=O)Nc3cc(C(=O)N4CCNCC4)ncn3)O[C@@](C)(C(F)(F)F)[C@H]2C)ccc(F)c1F` [Compound 21, (2R,3S,4S,5R)-3-(3,4-difluoro-2-methoxyphenyl)-4,5-dimethyl-N-(6-(piperazine-1-carbonyl)pyrimidin-4-yl)-5-(trifluoromethyl)tetrahydrofuran-2-carboxamide], the IC50 fell in the range of 0.01 to 0.1 µM. The result for `COc1c([C@H]2[C@H](C(=O)Nc3cc(C(=O)N4CCN(C)CC4)ncn3)O[C@@](C)(C(F)(F)F)[C@H]2C)ccc(F)c1F` [Compound 22, (2R,3S,4S,5R)-3-(3,4-difluoro-2-methoxyphenyl)-4,5-dimethyl-N-(6-(4-methylpiperazine-1-carbonyl)pyrimidin-4-yl)-5-(trifluoromethyl)tetrahydrofuran-2-carboxamide] reads 0.1 to 1 µM; that for `COc1c([C@H]2[C@H](C(=O)Nc3cc(C(N)=O)ncc3[Si](C)(C)C)O[C@@](C)(C(F)(F)F)[C@H]2C)ccc(F)c1F` [Compound 23, 4-((2R,3S,4S,5R)-3-(3,4-difluoro-2-methoxyphenyl)-4,5-dimethyl-5-(trifluoromethyl)tetrahydrofuran-2-carboxamido)-5-(trimethylsilyl)picolinamide], 0.1 to 1 µM. For `CNC(=O)c1cc(NC(=O)[C@@H]2O[C@@](C)(C(F)(F)F)[C@@H](C)[C@H]2c2ccc(F)c(F)c2OCCO)ccn1` [Compound 38, 4-((2R,3S,4S,5R)-3-(3,4-difluoro-2-(2-hydroxyethoxy)phenyl)-4,5-dimethyl-5-(trifluoromethyl)tetrahydrofuran-2-carboxamido)-N-methylpicolinamide], the IC50 was less than 0.01 µM. For the molecule `C[C@@H](COc1c([C@H]2[C@H](C(=O)Nc3ccnc(C(N)=O)c3)O[C@@](C)(C(F)(F)F)[C@H]2C)ccc(F)c1F)N1CC2(COC2)C1` [Compound 40, 4-((2R,3S,4S,5R)-3-(2-((S)-2-(2-oxa-6-azaspiro[3.3]heptan-6-yl)propoxy)-3,4-difluorophenyl)-4,5-dimethyl-5-(trifluoromethyl)tetrahydrofuran-2-carboxamido)picolinamide], the IC50 is less than 0.01 µM. Consider `CNC(=O)c1cc(NC(=O)[C@@H]2O[C@@](C)(C(F)(F)F)[C@@H](C)[C@H]2c2ccc(F)c(F)c2OC[C@@H](C)N2CC3(COC3)C2)ccn1` [Compound 41, 4-((2R,3S,4S,5R)-3-(2-((R)-2-(2-oxa-6-azaspiro[3.3]heptan-6-yl)propoxy)-3,4-difluorophenyl)-4,5-dimethyl-5-(trifluoromethyl)tetrahydrofuran-2-carboxamido)-N-methylpicolinamide], for which the IC50 lay within 0.1 to 1 µM.

On to `C[C@H](COc1c([C@H]2[C@H](C(=O)Nc3ccnc(C(N)=O)c3)O[C@@](C)(C(F)(F)F)[C@H]2C)ccc(F)c1F)N1CC2(COC2)C1` [Compound 42, 4-((2R,3S,4S,5R)-3-(2-((R)-2-(2-oxa-6-azaspiro[3.3]heptan-6-yl)propoxy)-3,4-difluorophenyl)-4,5-dimethyl-5-(trifluoromethyl)tetrahydrofuran-2-carboxamido)picolinamide], for which the IC50 was 0.01 to 0.1 µM. Take `CNC(=O)c1cc(NC(=O)[C@@H]2O[C@@](C)(C(F)(F)F)[C@@H](C)[C@H]2c2ccc(F)c(F)c2OC[C@H](C)N2CC3(COC3)C2)ccn1` [Compound 43, 4-((2R,3S,4S,5R)-3-(2-((S)-2-(2-oxa-6-azaspiro[3.3]heptan-6-yl)propoxy)-3,4-difluorophenyl)-4,5-dimethyl-5-(trifluoromethyl)tetrahydrofuran-2-carboxamido)-N-methylpicolinamide]: the IC50 was less than 0.01 µM. As for `C[C@H]1[C@@H](c2ccc(F)c(F)c2OCCN(C)C)[C@H](C(=O)Nc2ccnc(C(N)=O)c2)O[C@@]1(C)C(F)(F)F` [Compound 44, 4-((2R,3S,4S,5R)-3-(2-(2-(dimethylamino)ethoxy)-3,4-difluorophenyl)-4,5-dimethyl-5-(trifluoromethyl)tetrahydrofuran-2-carboxamido) picolinamide], the IC50 is 0.01 to 0.1 µM.

(Values after US20250213555A1, “SUBSTITUTED TETRAHYDROFURAN ANALOGS AS MODULATORS OF SODIUM CHANNELS” (VERTEX PHARMACEUTICALS INCORPORATED, priority 2021, published 2025).)
